Measurements from publication PMC8528861, “Structural and functional analysis of target recognition by the lymphocyte adaptor protein LNK” (Nature Communications, 2021).

Assays:
Test in all cases: Thermostability assay
Conditions in all cases: for Tm: protein 100 μM, peptide five-fold molar excess, phenyl phosphate 8 mM; for delta Tm / Tm, plus phosphotyrosine: 10 mM phosphotyrosine; for delta Tm: relative to apo Tm; for Tm, plus phosphotyrosine: protein 30 μM in PBS
R387C LNK SH2 domain = molecular target: T1, R387C LNK SH2 domain (Mus musculus, UniProt O09039, R387C); assay type: binding
T1 construct: DNA encoding the mouse LNK SH2 domain (residues 324–446) and an N-terminal NusA; NusA (N, cleaved yes); made in house; host or cells: E. coli
T1 sequence (O09039 324-446 R387C): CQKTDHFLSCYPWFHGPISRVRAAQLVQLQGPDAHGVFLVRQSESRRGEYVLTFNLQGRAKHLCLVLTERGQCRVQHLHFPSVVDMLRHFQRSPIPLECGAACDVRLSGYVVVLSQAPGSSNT
Protocol: (§1) Using mouse SH2 domain equivalents of these variants we investigated whether the incorporation of these mutations affected protein stability by measuring their melting point (Tm).
(§2) For peptide and phenyl phosphate experiments, proteins were desalted into 100 mM NaCl, 20 mM Tris (pH 8.0), 2 mM TCEP buffer and diluted to 100 μM. Where peptides were used, a five-fold molar excess of peptide was added to each sample, in phenyl phosphate conditions concentration was 8 mM. For experiments were phosphotyrosine, proteins were diluted to 30 μM in PBS and in phosphate conditions, concentration was 10 mM. Ten mcroliter of each sample was transferred into a capillary and measured from 35 to 95 °C using a Tycho N6T (Nanotemper). Data were analyzed in Prism.

WT LNK SH2 domain = molecular target: T2, WT LNK SH2 domain (Mus musculus, UniProt O09039); assay type: binding
T2 construct: DNA encoding the mouse LNK SH2 domain (residues 324–446) and an N-terminal NusA; NusA (N, cleaved yes); made in house; host or cells: E. coli (tuner (DE3), BL21(DE3) or C43)
T2 sequence (O09039 324-446): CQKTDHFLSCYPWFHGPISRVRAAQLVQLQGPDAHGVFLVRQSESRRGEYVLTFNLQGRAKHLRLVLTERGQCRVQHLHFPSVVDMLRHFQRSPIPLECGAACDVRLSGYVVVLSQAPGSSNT
Protocol: as §1, §2

R387H LNK SH2 domain = molecular target: T3, R387H LNK SH2 domain (Mus musculus, UniProt O09039, R387H); assay type: binding
T3 construct: DNA encoding the mouse LNK SH2 domain (residues 324–446) and an N-terminal NusA; NusA (N, cleaved yes); made in house; host or cells: E. coli
T3 sequence (O09039 324-446 R387H): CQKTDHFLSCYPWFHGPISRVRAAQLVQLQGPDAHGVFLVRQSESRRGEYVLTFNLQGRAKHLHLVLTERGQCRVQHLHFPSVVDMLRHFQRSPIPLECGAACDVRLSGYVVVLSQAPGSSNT
Protocol: as §1, §2

V374M LNK SH2 domain = assay type: binding, mouse
Protocol: as §1, §2

## O=P(O)(O)Oc1ccccc1 [Phenyl Phos, phenyl phosphate]
R387C LNK SH2 domain; replicate 1
  Tm: 56.6 °C
R387C LNK SH2 domain; replicate 2
  Tm: 54.9 °C
R387C LNK SH2 domain; replicate 3
  Tm: 54.8 °C
WT LNK SH2 domain; replicate 1
  Tm: 60.6 °C
WT LNK SH2 domain; replicate 2
  Tm: 61.6 °C
WT LNK SH2 domain; replicate 3
  Tm: 60.8 °C
R387H LNK SH2 domain; replicate 1
  Tm: 55.7 °C
R387H LNK SH2 domain; replicate 2
  Tm: 56.0 °C
R387H LNK SH2 domain; replicate 3
  Tm: 56.2 °C
V374M LNK SH2 domain; replicate 1
  Tm: 54.0 °C
V374M LNK SH2 domain; replicate 2
  Tm: 54.3 °C
V374M LNK SH2 domain; replicate 3
  Tm: 54.7 °C

## N[C@@H](Cc1ccc(OP(=O)(O)O)cc1)C(=O)O [Phosphotyrosine, phosphotyrosine]
R387C LNK SH2 domain; replicate 1
  delta Tm: 5.7 °C
  Tm, plus phosphotyrosine: 56.8 °C
R387C LNK SH2 domain; replicate 2
  delta Tm: 6.5 °C
  Tm, plus phosphotyrosine: 57.5 °C
R387C LNK SH2 domain; replicate 3
  delta Tm: 6.1 °C
  Tm, plus phosphotyrosine: 57.1 °C
R387C LNK SH2 domain; replicate 4
  delta Tm: 6.2 °C
  Tm, plus phosphotyrosine: 57.2 °C
R387C LNK SH2 domain; replicate 5
  delta Tm: 6.4 °C
  Tm, plus phosphotyrosine: 57.6 °C
WT LNK SH2 domain; replicate 1
  delta Tm: 6.6 °C
  Tm, plus phosphotyrosine: 61.1 °C
WT LNK SH2 domain; replicate 2
  delta Tm: 8.1 °C
  Tm, plus phosphotyrosine: 61.7 °C
WT LNK SH2 domain; replicate 3
  delta Tm: 7.6 °C
  Tm, plus phosphotyrosine: 61.9 °C
WT LNK SH2 domain; replicate 4
  delta Tm: 8.1 °C
  Tm, plus phosphotyrosine: 62.5 °C
R387H LNK SH2 domain; replicate 1
  delta Tm: 3.9 °C
  Tm, plus phosphotyrosine: 55.2 °C
R387H LNK SH2 domain; replicate 2
  delta Tm: 3.9 °C
  Tm, plus phosphotyrosine: 55.2 °C
R387H LNK SH2 domain; replicate 3
  delta Tm: 3.6 °C
  Tm, plus phosphotyrosine: 54.8 °C
R387H LNK SH2 domain; replicate 4
  delta Tm: 3.4 °C
  Tm, plus phosphotyrosine: 54.9 °C
R387H LNK SH2 domain; replicate 5
  delta Tm: 3.5 °C
  Tm, plus phosphotyrosine: 55 °C
V374M LNK SH2 domain; replicate 1
  delta Tm: 3.1 °C
  Tm, plus phosphotyrosine: 55 °C
V374M LNK SH2 domain; replicate 2
  delta Tm: 3.2 °C
  Tm, plus phosphotyrosine: 55.1 °C
V374M LNK SH2 domain; replicate 3
  delta Tm: 3.3 °C
  Tm, plus phosphotyrosine: 55.2 °C
V374M LNK SH2 domain; replicate 4
  delta Tm: 3.2 °C
  Tm, plus phosphotyrosine: 55.2 °C
V374M LNK SH2 domain; replicate 5
  delta Tm: 3.4 °C
  Tm, plus phosphotyrosine: 55.2 °C
